Experimental findings from patent publication US4977152A, “Novel tricyclic derivatives which are agonists of cholinergic receptors, and drugs in which they are present” (Societe Anonyme: Sanofi, priority 1986, dated 1990) are described below.

For assay [1], the target named is T1, M1 central muscarinic cholinergic receptors (Mus musculus, UniProt P12657).
T1 construct: The intrastriatal injection of PZ into mice induces rotational behavior; from tissue; host or cells: right striatum of living female mice (Swiss, CD 1)
T1 sequence (P12657 1-460): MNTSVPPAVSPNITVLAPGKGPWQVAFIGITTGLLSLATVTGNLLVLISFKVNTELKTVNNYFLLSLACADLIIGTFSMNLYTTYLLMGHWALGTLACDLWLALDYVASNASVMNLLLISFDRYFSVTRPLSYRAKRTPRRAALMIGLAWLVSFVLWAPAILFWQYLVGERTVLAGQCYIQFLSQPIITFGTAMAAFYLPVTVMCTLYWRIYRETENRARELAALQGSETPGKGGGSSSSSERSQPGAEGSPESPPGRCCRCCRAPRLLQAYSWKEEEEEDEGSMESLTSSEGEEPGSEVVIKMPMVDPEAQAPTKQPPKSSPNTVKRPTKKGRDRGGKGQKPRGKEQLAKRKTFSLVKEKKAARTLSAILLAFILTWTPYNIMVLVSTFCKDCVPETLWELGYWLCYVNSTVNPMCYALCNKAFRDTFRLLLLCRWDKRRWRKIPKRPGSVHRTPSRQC
Kind of assay: Antagonism of rotational behavior induced by intrastriatal injection of pirenzepine in mice. In kind it is in vivo, mice (female, Swiss, CD 1). To be noted: ip, read-out: Pirenzepine antagonism ED50. As to the method: Pirenzepine (PZ) is a specific antagonist of M1 central muscarinic cholinergic receptors. The intrastriatal injection of PZ into mice induces rotational behavior. The antagonism of this behavior by the products according to the invention was studied.
The products according to the invention are injected intraperitoneally (i.p.) after solubilization in distilled water or suspension in a 5% solution of gum arabic. The control animals receive an injection of the pure solvent under the same conditions.
The animals used are female mice (Swiss, CD 1, Charles River, France) with a body weight of between 25 and 30 grams.
Pirenzepine is dissolved in a phosphate buffer; the pH of the solution is 6.
The products to be studied or their solvents are injected intraperitoneally, in a volume of 0.4 ml per 20 g of body weight, 15 minutes before a direct injection of pirenzepine at a dose of […] into the right striatum of the mouse, according to the method described by p.
The number of contralateral rotations (rotations in the opposite direction to the side injected) was counted for three 2-minute periods after the injection of pirenzepine: minutes 2 to 4, 8 to 10 and 13 to 15. Each treatment includes 3 to 4 doses and 10 animals per dose. For each treatment, the total number of rotations and the percentage antagonism compared with the control group are calculated.

Assay [2] concerns the target T2, M2-type muscarinic cholinergic receptor (Cavia porcellus, UniProt H0VRN8).
T2 construct: on a homogenate of smooth muscle of guinea-pig ileum; from tissue; host or cells: guinea-pig ileum smooth muscle homogenate
T2 sequence (H0VRN8 1-466): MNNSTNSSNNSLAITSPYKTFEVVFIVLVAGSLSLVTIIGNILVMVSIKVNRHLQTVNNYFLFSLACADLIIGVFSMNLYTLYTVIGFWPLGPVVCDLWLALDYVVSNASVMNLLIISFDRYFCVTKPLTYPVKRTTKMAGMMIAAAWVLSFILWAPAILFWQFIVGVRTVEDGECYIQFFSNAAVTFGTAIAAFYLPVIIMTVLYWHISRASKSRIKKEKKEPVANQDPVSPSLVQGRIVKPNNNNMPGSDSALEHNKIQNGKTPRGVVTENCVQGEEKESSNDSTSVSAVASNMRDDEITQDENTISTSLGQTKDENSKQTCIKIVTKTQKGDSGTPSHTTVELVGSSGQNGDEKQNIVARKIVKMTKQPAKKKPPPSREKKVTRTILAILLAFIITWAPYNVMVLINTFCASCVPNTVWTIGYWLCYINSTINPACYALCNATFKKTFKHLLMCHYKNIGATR
Kind of assay: Test for affinity for the M2-type muscarinic cholinergic receptor: displacement of [3H]N-methylscopolamine on smooth muscle of guinea-pig ileum. To be noted: guinea-pig ileum smooth muscle homogenate, 0.3 nM [3H]NMS, 20 min at 30° C., pH 7.5. The format is binding. From the text: (§1) The M1 -type receptors are concentrated in certain areas of the brain, such as the hippocampus, the cerebral cortex and the striatum, and also in the sympathetic ganglia. These binding sites can be selectively labeled with [^3 H]pirenzepine ([^3 H]PZ). The M2 -type receptors predominate in the heart and ileum and can be labeled with [^3 H]N-methylscopolamine ([^3 H]NMS). To determine the selectivity of our molecules towards the M1 and M2 sites, we studied their interaction in vitro with [^3 H]PZ and [^3 H]NMS bound with a high affinity to membranes of rat hippocampus and membranes of smooth muscle of guinea-pig ileum, respectively.
The interaction with M2 -type muscarinic receptors was studied by in vitro measurement, on a homogenate of smooth muscle of guinea-pig ileum, of the displacement of tritiated N-methylscopolamine ([^3 H]NMS) from its specific binding sites. Aliquots (50 μl) of a 0.625% (w/v) homogenate of smooth muscle of guinea-pig ileum in MEPES buffer (20 mM) containing NaCl (100 mM) and MgCl2 (10 mM) (final pH: 7.5) are incubated for 20 min at 30° C. in the presence of [^3 H]NMS ([…]; final concentration: 0.3 nM) and increasing concentrations of products to be tested. The final volume is 1 ml. The reaction is stopped by centrifugation for 5 min at 15,000 × g. The non-specific binding is determined in the presence of 10 μmol/l of atropine sulfate (Ref.: Hammer R., Berrie C. P., Birdsall N. I. M., Burgen A. S. V. and Hulme E. C., Nature, 283, 90-92, 1980; Hulme E. C., Birdsall N.1.M., Burgen A. S. V. and Mettha P., Mol. pharmacol., 14, 737-750, 1978).
(§2) Table 4 indicates the affinities of the products of the invention for M1 and M2 receptors. The results are expressed as 50% inhibitory concentrations (IC50), i.e. the concentration (in μM) which causes a 50% displacement placement of the tritiated ligand bound to the membrane receptors. The IC50 for displacement of ^3 H-pirenzepine represents the affinity for the M1 receptor; the IC50 for displacement of 3H-NMS represents the affinity for the M2 receptor.

Assay [3] deals with T3, M1-type muscarinic cholinergic receptor (Rattus norvegicus, UniProt P08482).
T3 sequence (P08482 1-460): T1 sequence (P12657 1-460) with P309S
Kind of assay: Test for affinity for the M1-type muscarinic cholinergic receptor: displacement of [3H]pirenzepine on rat hippocampus homogenate. The format is binding. To be noted: for IC50: rat hippocampus homogenate, 1 nM [3H]PZ, 2 h at 4° C., pH 7.40; for r = (M2 /M1): ratio of IC50 M2 (3H-NMS, guinea-pig ileum) to IC50 M1 (3H-pirenzepine, rat hippocampus).
Source text: as §1
The interaction of the molecules with M1 -type muscarinic receptors was studied by in vitro measurement, on a homogenate of rat hippocampus, of the displacement of tritiated pirenzepine ([^3 H]PZ) from its specific binding sites. Aliquots (10 μl) of a 5% (w/v) homogenate of rat hippocampus in an Na2 HPO4 buffer (50 mM, pH 7.40) are incubated for 2 h at 4° C. in the presence of [^3 H]pZ ([…]; final concentration: 1 nM) and increasing concentrations of products to be studied. The final volume is 2 ml. The reaction is stopped by centrifugation for 10 min at 50,000 × g. After decantation and washing of the residues, the bound radioactivity is counted by liquid scintillation. The non-specific binding is determined in the presence of 10 μmol/l of atropine sulfate. The 50% inhibitory concentration (IC50) is determined graphically (Ref.: Watson J. D., Roeskoe W. R. and Yamamura H.1., Life Sci., 31, 2019-2029, 1982).
as §2
(In a radioligand displacement assay an active substance lowers the binding of a labelled ligand.)

Setting [4] is: mice, i.p. 15 minutes before intrastriatal pirenzepine, 50% reduction in number of rotations.

Substitutions are numbered along the chain they refer to. Several values for one entry are separate records, joined by “and”; a condition that tells them apart may be missing. Equal entries are not always repeated. Where two headings read alike, the source gives them in different places.

The term ED50 denotes the dose that gives a 50% effect, or the effect in half of the subjects. As usually defined, the IC50 is the concentration that inhibits the measured activity by half. Lower therefore signals inhibition by little substance.

As for `CCN(CC)CCNc1cc2c(nn1)-c1cc([N+](=O)[O-])ccc1CCC2.Cl.Cl` [SR 95777 A, 3-(2-Diethylaminoethylamino)-10-nitro-6,7-dihydro-5H-benzocyclohepta[5,6-c]pyridazine dihydrochloride], in assay [1], the median effective dose (ED50) worked out at 0.5 mg/kg. In addition, the IC50 in assay [2] was 5.6 µM. In assay [3], the IC50 was 0.1 µM and the “r = (M2 /M1)” value turned out to be 56.

Consider `CN(C)CCNc1cc2c(nn1)-c1ccccc1CCC2` [SR 95824 A], for which the ED50 in assay [1] (setting [4]) came to 3 mg/kg. In assay [2], this compound had an IC50 of 25 µM. Besides, in assay [3], the IC50 was 0.2 µM and the “r = (M2 /M1)” value stood at 125.

As to `Cl.Cl.c1ccc2c(c1)CCCc1cc(NCCN3CCOCC3)nnc1-2` [SR 95639 A, 3-(2-Morpholinoethylamino)-6,7-dihydro-5H-benzocyclohepta[5,6-c]pyridazine dihydrochloride], the ED50 in assay [1] came to 5 mg/kg. Besides, the IC50 in assay [2] was 55 µM; in assay [3], 0.4 µM. The “r = (M2 /M1)” value in assay [3] is on record as 137.

In the case of `CCN(CC)CCNc1cc2c(nn1)-c1cc(Cl)ccc1CCC2.Cl.Cl` [SR 95878 A, 10-Chloro-3-(2-diethylaminoethylamino)-6,7-dihydro-5H-benzocyclohepta[5,6-c]pyridazine dihydrochloride], the ED50 in assay [1] was 2 mg/kg. In addition, in assay [2], the IC50 was 1.1 µM. Besides, in assay [3], the IC50 was found to be 0.04 µM and the “r = (M2 /M1)” value is recorded as 26.

For `CCN(CC)CCNc1cc2c(nn1)-c1cc(C)c(C)cc1CCC2.Cl.Cl` [SR 44663 A, 3-(2-Diethylaminoethylamino)-9,10-dimethyl-6,7-dihydro-5H-benzocyclohepta[5,6-c]pyridazine dihydrochloride], in assay [1], the ED50 came to 1 mg/kg. For the same compound, the IC50 in assay [2] amounted to 5 µM. For the same compound, in assay [3], the half-inhibitory concentration (IC50) is 0.16 µM and the “r = (M2 /M1)” value is on record as 37.

`Cl.Cl.c1ccc2c(c1)CCc1cc(NCCN3CCOCC3)nnc1-2` [SR 95695 A, 3-(2-Morpholinoethylamino)-5,6-dihydrobenzo[h]cinnoline dihydrochloride]: the ED50 in assay [1] turned out to be 5 mg/kg. The IC50 in assay [2] was 100 µM and > 100 µM; in assay [3] it was 2.6 µM. Besides, the “r = (M2 /M1)” value in assay [3] (dihydrochloride) was 38 and > 38.

Consider `Cc1cc2c(cc1C)-c1nnc(NCCN(C(C)C)C(C)C)cc1CCC2` [SR 44664 A], for which the ED50 in assay [1] (setting [4]) was found to be 3 mg/kg. This compound came in with a half-inhibitory concentration (IC50) in assay [2] of 2 µM. In assay [3], the half-inhibitory concentration (IC50) turned out to be 0.18 µM and the “r = (M2 /M1)” value is given as 11.
